{
  "source": "paper PMC5218480",
  "about": "(PLoS ONE, 2017)",
  "test_system": "MV-4-11 cells",
  "test": "Gene expression microarray analysis (Affymetrix PrimeView) and GSEA",
  "format": "cell-based, human",
  "parameters": "RFU PODN (11730768_x_at) / Fold change /veh PODN (11730768_x_at) / RFU LINC00158 (11744669_a_at) / Fold change /veh LINC00158 (11744669_a_at) / RFU DUSP10 (11751237_a_at) / Fold change /veh DUSP10 (11751237_a_at) / RFU ID3 (11757404_x_at) / Fold change /veh ID3 (11757404_x_at) / RFU PLEKHG5 (11737974_s_at) / Fold change /veh PLEKHG5 (11737974_s_at) / RFU LRRC4B (11730491_at) / Fold change /veh LRRC4B (11730491_at) / RFU GIMAP4 (11747438_a_at) / Fold change /veh GIMAP4 (11747438_a_at) / RFU KRT8 (11758183_x_at) / Fold change /veh KRT8 (11758183_x_at) / RFU CNN1 (11734310_a_at) / Fold change /veh CNN1 (11734310_a_at) / RFU VPS37D (11726825_at) / Fold change /veh VPS37D (11726825_at) / RFU C10orf10 (11716522_x_at) / Fold change /veh C10orf10 (11716522_x_at) / RFU KIR2DL2 /// KIR2DL4 /// KIR2DL5A /// KIR2DL5B /// KIR2DS1 /// KIR2DS2 /// KIR2DS3 /// KIR2DS4 /// KIR3DL3 /// KIR3DL3 /// KIR3DS1 (11738374_at) / Fold change /veh KIR2DL2 /// KIR2DL4 /// KIR2DL5A /// KIR2DL5B /// KIR2DS1 /// KIR2DS2 /// KIR2DS3 /// KIR2DS4 /// KIR3DL3 /// KIR3DL3 /// KIR3DS1 (11738374_at) / RFU C1QL1 (11718748_at) / Fold change /veh C1QL1 (11718748_at) / RFU TMPRSS4 (11747572_a_at) / Fold change /veh TMPRSS4 (11747572_a_at) / RFU HAMP (11756126_x_at) / Fold change /veh HAMP (11756126_x_at) / RFU RNFT2 (11725882_a_at) / Fold change /veh RNFT2 (11725882_a_at) / RFU NR4A2 (11747474_a_at) / Fold change /veh NR4A2 (11747474_a_at) / RFU ABCC12 (11746883_a_at) / Fold change /veh ABCC12 (11746883_a_at) / RFU TMEM136 (11760407_x_at) / Fold change /veh TMEM136 (11760407_x_at) / RFU CLDN22 /// WWC2 (11732394_at) / Fold change /veh CLDN22 /// WWC2 (11732394_at) / RFU HLA-DPB1 (11760878_x_at) / Fold change /veh HLA-DPB1 (11760878_x_at) / RFU SPINT1 (11716480_a_at) / Fold change /veh SPINT1 (11716480_a_at) / RFU GAP43 (11754022_s_at) / Fold change /veh GAP43 (11754022_s_at) / RFU A4GNT (11735810_at) / Fold change /veh A4GNT (11735810_at) / RFU PRB3 (11715151_x_at) / Fold change /veh PRB3 (11715151_x_at) / RFU TUBB4B (11761932_at) / Fold change /veh TUBB4B (11761932_at) / RFU CAPN14 (11732068_a_at) / Fold change /veh CAPN14 (11732068_a_at) / RFU TMCC2 (11721928_a_at) / Fold change /veh TMCC2 (11721928_a_at) / RFU IRGQ (11745062_a_at) / Fold change /veh IRGQ (11745062_a_at) / RFU FAM174B (11720279_a_at) / Fold change /veh FAM174B (11720279_a_at) / RFU TMPRSS4 (11748680_a_at) / Fold change /veh TMPRSS4 (11748680_a_at) / RFU FAM212B (11763350_a_at) / Fold change /veh FAM212B (11763350_a_at) / RFU PLEKHG5 (11743358_a_at) / Fold change /veh PLEKHG5 (11743358_a_at) / RFU ZSCAN30 (11745921_a_at) / Fold change /veh ZSCAN30 (11745921_a_at) / RFU CMKLR1 (11741424_a_at) / Fold change /veh CMKLR1 (11741424_a_at) / RFU LOC101060620 /// MAPK8IP1 (11723275_at) / Fold change /veh LOC101060620 /// MAPK8IP1 (11723275_at) / RFU SPTSSB (11747773_x_at) / Fold change /veh SPTSSB (11747773_x_at) / RFU PRSS12 (11739890_at) / Fold change /veh PRSS12 (11739890_at) / RFU BIN1 (11741810_x_at) / Fold change /veh BIN1 (11741810_x_at) / RFU WNT11 (11732464_a_at) / Fold change /veh WNT11 (11732464_a_at) / RFU C10orf10 (11716521_a_at) / Fold change /veh C10orf10 (11716521_a_at) / RFU C5orf56 (11738089_at) / Fold change /veh C5orf56 (11738089_at) / RFU CYB561 (11721691_x_at) / Fold change /veh CYB561 (11721691_x_at) / RFU ANKRD19P (11752326_a_at) / Fold change /veh ANKRD19P (11752326_a_at) / RFU OR2T12 /// OR2T33 /// OR2T8 (11738714_s_at) / Fold change /veh OR2T12 /// OR2T33 /// OR2T8 (11738714_s_at) / RFU VCAN (11748164_a_at) / Fold change /veh VCAN (11748164_a_at) / RFU JSRP1 (11732532_at) / Fold change /veh JSRP1 (11732532_at) / RFU KRTAP10-11 (11738290_x_at) / Fold change /veh KRTAP10-11 (11738290_x_at) / RFU MYO3A (11730013_a_at) / Fold change /veh MYO3A (11730013_a_at) / RFU EBF3 (11725865_a_at) / Fold change /veh EBF3 (11725865_a_at) / RFU CAMK2N1 (11719241_x_at) / Fold change /veh CAMK2N1 (11719241_x_at) / RFU C5orf56 (11738088_a_at) / Fold change /veh C5orf56 (11738088_a_at) / RFU OLFML3 (11715873_a_at) / Fold change /veh OLFML3 (11715873_a_at) / RFU LOC100653217 /// NTM (11731650_a_at) / Fold change /veh LOC100653217 /// NTM (11731650_a_at) / RFU MAPK11 (11762145_a_at) / Fold change /veh MAPK11 (11762145_a_at) / RFU FIZ1 (11724087_x_at) / Fold change /veh FIZ1 (11724087_x_at) / RFU OASL (11726364_x_at) / Fold change /veh OASL (11726364_x_at) / RFU SOX15 (11748057_x_at) / Fold change /veh SOX15 (11748057_x_at) / RFU CD79A (11719716_a_at) / Fold change /veh CD79A (11719716_a_at) / RFU HIST1H1D (11736915_at) / Fold change /veh HIST1H1D (11736915_at) / RFU CASKIN2 (11723855_a_at) / Fold change /veh CASKIN2 (11723855_a_at) / RFU LOC730098 (11760151_x_at) / Fold change /veh LOC730098 (11760151_x_at) / RFU OR4N2 (11742367_at) / Fold change /veh OR4N2 (11742367_at) / RFU PRRT2 (11749266_a_at) / Fold change /veh PRRT2 (11749266_a_at) / RFU SNX32 (11753110_a_at) / Fold change /veh SNX32 (11753110_a_at) / RFU CDHR5 (11726645_a_at) / Fold change /veh CDHR5 (11726645_a_at) / RFU RCAN1 (11760418_a_at) / Fold change /veh RCAN1 (11760418_a_at) / RFU FAM167A (11723789_a_at) / Fold change /veh FAM167A (11723789_a_at) / RFU FAM26E (11764081_at) / Fold change /veh FAM26E (11764081_at) / RFU ISYNA1 (11749810_s_at) / Fold change /veh ISYNA1 (11749810_s_at) / RFU ACY1 (11761880_at) / Fold change /veh ACY1 (11761880_at) / RFU 11764098_at / Fold change /veh 11764098_at / RFU SAMD14 (11745864_x_at) / Fold change /veh SAMD14 (11745864_x_at) / RFU NPB (11741838_a_at) / Fold change /veh NPB (11741838_a_at) / RFU TMPRSS6 (11731388_a_at) / Fold change /veh TMPRSS6 (11731388_a_at) / RFU KRTAP10-2 (11738614_at) / Fold change /veh KRTAP10-2 (11738614_at) / RFU ARHGAP8 /// PRR5-ARHGAP8 (11727945_x_at) / Fold change /veh ARHGAP8 /// PRR5-ARHGAP8 (11727945_x_at) / RFU KRTAP5-7 /// NADSYN1 (11734609_at) / Fold change /veh KRTAP5-7 /// NADSYN1 (11734609_at) / RFU RASL12 (11751679_a_at) / Fold change /veh RASL12 (11751679_a_at) / RFU CDKN2B (11736163_a_at) / Fold change /veh CDKN2B (11736163_a_at) / RFU PRF1 (11729649_at) / Fold change /veh PRF1 (11729649_at) / RFU, ZNF638 /// ZNF638-IT1 / Fold change vs veh, ZNF638 /// ZNF638-IT1 / RFU, PANK3 / Fold change vs veh, PANK3 / RFU, SH3YL1 / Fold change vs veh, SH3YL1 / RFU, ZEB2 / Fold change vs veh, ZEB2 / RFU, NRIP1 / Fold change vs veh, NRIP1 / RFU, PTTG1IP / Fold change vs veh, PTTG1IP / RFU, CAPN2 / Fold change vs veh, CAPN2 / RFU, MED14 / Fold change vs veh, MED14 / RFU, SNORA58 / Fold change vs veh, SNORA58 / RFU, C1orf63 / Fold change vs veh, C1orf63 / RFU, LRRFIP1 / Fold change vs veh, LRRFIP1 / RFU, NDUFAF7 / Fold change vs veh, NDUFAF7 / RFU, SLC12A2 / Fold change vs veh, SLC12A2 / RFU, IBTK / Fold change vs veh, IBTK / RFU, ESF1 / Fold change vs veh, ESF1 / Fold change vs veh, TMEM50B / RFU, TAOK1 / Fold change vs veh, TAOK1 / RFU, ACBD3 / Fold change vs veh, ACBD3 / RFU, TMA16 / Fold change vs veh, TMA16 / RFU, RWDD3 / Fold change vs veh, RWDD3 / RFU, BCAT1 / Fold change vs veh, BCAT1 / RFU, EDEM3 / Fold change vs veh, EDEM3 / RFU, TMEM33 / Fold change vs veh, TMEM33 / RFU, WDR75 / Fold change vs veh, WDR75 / RFU, AHCTF1 / Fold change vs veh, AHCTF1 / RFU, TFRC / Fold change vs veh, TFRC / RFU, ZDHHC17 / Fold change vs veh, ZDHHC17 / RFU, NOM1 / Fold change vs veh, NOM1 / RFU, ARL8B / Fold change vs veh, ARL8B / RFU, ZBTB11 / Fold change vs veh, ZBTB11 / RFU, TAMM41 / Fold change vs veh, TAMM41 / RFU, KIAA1704 /// LOC100996395 / Fold change vs veh, KIAA1704 /// LOC100996395 / RFU, ING1 / Fold change vs veh, ING1 / RFU, TRMT61B / Fold change vs veh, TRMT61B / RFU, FUBP3 / Fold change vs veh, FUBP3 / RFU, TP53 / Fold change vs veh, TP53 / RFU, TNKS2 / Fold change vs veh, TNKS2 / RFU, ZFP14 / Fold change vs veh, ZFP14 / RFU, ACTR2 / Fold change vs veh, ACTR2 / RFU, PPP3R1 / Fold change vs veh, PPP3R1 / RFU, PIK3R1 / Fold change vs veh, PIK3R1 / RFU, HNRNPA1 / Fold change vs veh, HNRNPA1 / RFU, RNF170 / Fold change vs veh, RNF170 / RFU, ZNF28 / Fold change vs veh, ZNF28 / RFU, RNGTT / Fold change vs veh, RNGTT / RFU, OGT / Fold change vs veh, OGT / RFU, BRD1 / Fold change vs veh, BRD1 / RFU, MARS / Fold change vs veh, MARS / RFU, ZNF655 / Fold change vs veh, ZNF655 / RFU, FAHD1 / Fold change vs veh, FAHD1 / RFU, BDP1 / Fold change vs veh, BDP1 / RFU, LRRCC1 / Fold change vs veh, LRRCC1 / RFU, ARID1A / Fold change vs veh, ARID1A / RFU, ZNF146 / Fold change vs veh, ZNF146 / RFU, ZNF330 / Fold change vs veh, ZNF330 / RFU, GPN3 / Fold change vs veh, GPN3 / RFU, C9orf123 / Fold change vs veh, C9orf123 / RFU, N4BP2L2 / Fold change vs veh, N4BP2L2 / RFU, ARFIP1 / Fold change vs veh, ARFIP1 / RFU, FAM179B / Fold change vs veh, FAM179B / RFU, BCL10 / Fold change vs veh, BCL10 / RFU, UHRF1BP1L / Fold change vs veh, UHRF1BP1L / RFU, BET1 / Fold change vs veh, BET1 / RFU, CNOT2 / Fold change vs veh, CNOT2 / RFU, ZNF268 / Fold change vs veh, ZNF268 / Fold change vs veh, ZNF507 / RFU, DGCR2 / Fold change vs veh, DGCR2 / RFU, WDSUB1 / Fold change vs veh, WDSUB1 / Fold change vs veh, HSP90B1 /// MIR3652 / RFU, ADSS / Fold change vs veh, ADSS / RFU, GK / Fold change vs veh, GK / RFU, ZNF148 / Fold change vs veh, ZNF148 / RFU, TAF9 / Fold change vs veh, TAF9 / RFU, SLC1A5 / Fold change vs veh, SLC1A5 / RFU, SLMO2 / Fold change vs veh, SLMO2 / RFU, ABCC4 / Fold change vs veh, ABCC4 / RFU, LOC101060439 /// RAP1B / Fold change vs veh, LOC101060439 /// RAP1B / RFU, RFX7 / Fold change vs veh, RFX7 / RFU, GTPBP10 / Fold change vs veh, GTPBP10 / RFU, CNEP1R1 / Fold change vs veh, CNEP1R1 / RFU, BIVM-ERCC5 /// ERCC5 / Fold change vs veh, BIVM-ERCC5 /// ERCC5 / RFU, ILF3 / Fold change vs veh, ILF3 / RFU 11762660_at / Fold change /veh 11762660_at / RFU VCAN (11757783_s_at) / Fold change /veh VCAN (11757783_s_at) / RFU DDX43 (11728927_at) / Fold change /veh DDX43 (11728927_at) / RFU KRT8 (11758188_x_at) / Fold change /veh KRT8 (11758188_x_at) / RFU NKD1 (11759106_at) / Fold change /veh NKD1 (11759106_at) / RFU SRD5A1 (11742802_a_at) / Fold change /veh SRD5A1 (11742802_a_at) / RFU TPSAB1 /// TPSB2 (11721975_s_at) / Fold change /veh TPSAB1 /// TPSB2 (11721975_s_at) / RFU GSTM3 (11746129_a_at) / Fold change /veh GSTM3 (11746129_a_at) / RFU IL23R (11737362_x_at) / Fold change /veh IL23R (11737362_x_at) / RFU TMEM51 (11727254_a_at) / Fold change /veh TMEM51 (11727254_a_at) / RFU PIWIL2 (11732686_x_at) / Fold change /veh PIWIL2 (11732686_x_at) / RFU ORM1 (11744905_x_at) / Fold change /veh ORM1 (11744905_x_at) / RFU CCDC152 (11743942_at) / Fold change /veh CCDC152 (11743942_at) / RFU ECM1 (11717891_a_at) / Fold change /veh ECM1 (11717891_a_at) / RFU IL23R (11748794_a_at) / Fold change /veh IL23R (11748794_a_at) / RFU TNFAIP8L3 (11732012_x_at) / Fold change /veh TNFAIP8L3 (11732012_x_at) / RFU MBOAT4 (11741988_at) / Fold change /veh MBOAT4 (11741988_at) / RFU 11764193_at / Fold change /veh 11764193_at / RFU TMEM53 (11763286_at) / Fold change /veh TMEM53 (11763286_at) / RFU MAGEB2 (11727129_at) / Fold change /veh MAGEB2 (11727129_at) / RFU TMEM200A (11744735_a_at) / Fold change /veh TMEM200A (11744735_a_at) / RFU CCDC152 (11751479_a_at) / Fold change /veh CCDC152 (11751479_a_at) / RFU FAM211A (11726209_a_at) / Fold change /veh FAM211A (11726209_a_at) / RFU RGS16 (11746705_a_at) / Fold change /veh RGS16 (11746705_a_at) / RFU VCAN (11755009_s_at) / Fold change /veh VCAN (11755009_s_at) / RFU RHOB (11743442_s_at) / Fold change /veh RHOB (11743442_s_at) / RFU RGS16 (11720943_a_at) / Fold change /veh RGS16 (11720943_a_at) / RFU RGS16 (11720944_at) / Fold change /veh RGS16 (11720944_at) / RFU, VPS4B / Fold change vs veh, VPS4B / RFU, CREB1 / Fold change vs veh, CREB1 / RFU, DNAJC13 / Fold change vs veh, DNAJC13 / RFU, GNAQ / Fold change vs veh, GNAQ / RFU, CDK5R1 / Fold change vs veh, CDK5R1 / RFU, ZRANB3 / Fold change vs veh, ZRANB3 / RFU, CUL4A / Fold change vs veh, CUL4A / RFU, CCNY / Fold change vs veh, CCNY / RFU, UFL1 / Fold change vs veh, UFL1 / RFU, COG3 / Fold change vs veh, COG3 / RFU, DIAPH2 / Fold change vs veh, DIAPH2 / RFU, SKA2 / Fold change vs veh, SKA2 / RFU, AFF3 / Fold change vs veh, AFF3 / RFU, LMF1 / Fold change vs veh, LMF1 / RFU, IPO11 / Fold change vs veh, IPO11 / RFU, DFFB / Fold change vs veh, DFFB / RFU, FOXP1 / Fold change vs veh, FOXP1 / RFU, CARD8 / Fold change vs veh, CARD8 / RFU, STRN3 / Fold change vs veh, STRN3 / RFU, ADK / Fold change vs veh, ADK / RFU, RASSF2 / Fold change vs veh, RASSF2 / RFU, WIPF1 / Fold change vs veh, WIPF1 / RFU, LARP1B / Fold change vs veh, LARP1B / RFU, RASA1 / Fold change vs veh, RASA1 / RFU, RB1 / Fold change vs veh, RB1 / RFU, PPFIA1 / Fold change vs veh, PPFIA1 / RFU, MAT2A / Fold change vs veh, MAT2A / RFU, CCT5 / Fold change vs veh, CCT5 / RFU, WDR92 / Fold change vs veh, WDR92 / RFU, CUX1 / Fold change vs veh, CUX1 / RFU, TTC7A / Fold change vs veh, TTC7A / RFU, TMEM135 / Fold change vs veh, TMEM135 / RFU, DEPTOR / Fold change vs veh, DEPTOR / RFU, CPM / Fold change vs veh, CPM / RFU, DNAJB6 / Fold change vs veh, DNAJB6 / RFU, CACNA2D3 / Fold change vs veh, CACNA2D3 / RFU, DTX4 / Fold change vs veh, DTX4 / RFU, TFCP2 / Fold change vs veh, TFCP2 / RFU, GMCL1 /// GMCL1P1 / Fold change vs veh, GMCL1 /// GMCL1P1 / RFU, AEBP2 / Fold change vs veh, AEBP2 / RFU, SNHG1 /// SNORD22 /// SNORD25 /// SNORD26 /// SNORD27 /// SNORD28 /// SNORD29 /// SNORD31 / Fold change vs veh, SNHG1 /// SNORD22 /// SNORD25 /// SNORD26 /// SNORD27 /// SNORD28 /// SNORD29 /// SNORD31 / Fold change (Aza/veh), C12orf56 (ProbeSet 11735607_a_at) / Fold change (ACY-1035/veh), C12orf56 (ProbeSet 11735607_a_at) / Fold change (Aza/veh), FGFR1OP (ProbeSet 11751329_s_at) / Fold change (ACY-1035/veh), FGFR1OP (ProbeSet 11751329_s_at) / Fold change (Aza/veh), VPS36 (ProbeSet 11739960_a_at) / Fold change (ACY-1035/veh), VPS36 (ProbeSet 11739960_a_at) / RFU SYPL1 (11715823_x_at) / Fold change /veh SYPL1 (11715823_x_at) / RFU IGFBP7 (11715501_s_at) / Fold change /veh IGFBP7 (11715501_s_at) / RFU REEP3 (11722064_at) / Fold change /veh REEP3 (11722064_at) / RFU IGLL1 (11728026_x_at) / Fold change /veh IGLL1 (11728026_x_at): dose or concentration left out as unconfirmed",
  "settings": "MV-4-11 cells, 48 hours",
  "data": [
    {"smiles": "Nc1ncn([C@@H]2O[C@H](CO)[C@@H](O)[C@H]2O)c(=O)n1", "note": "[azacitidine]", "values": [
      {"measurement": "Fold change /veh 11764193_at", "value": 1.69}
    ]}
  ]
}
